Experimental findings from article PMC13266984 (Journal of medicinal chemistry, 2026) are described below.

SMILES strings stand for the structures.

The assay addresses T1, Human ALDH3A1 (Homo sapiens, UniProt P30838).
T1 sequence (P30838 1-453): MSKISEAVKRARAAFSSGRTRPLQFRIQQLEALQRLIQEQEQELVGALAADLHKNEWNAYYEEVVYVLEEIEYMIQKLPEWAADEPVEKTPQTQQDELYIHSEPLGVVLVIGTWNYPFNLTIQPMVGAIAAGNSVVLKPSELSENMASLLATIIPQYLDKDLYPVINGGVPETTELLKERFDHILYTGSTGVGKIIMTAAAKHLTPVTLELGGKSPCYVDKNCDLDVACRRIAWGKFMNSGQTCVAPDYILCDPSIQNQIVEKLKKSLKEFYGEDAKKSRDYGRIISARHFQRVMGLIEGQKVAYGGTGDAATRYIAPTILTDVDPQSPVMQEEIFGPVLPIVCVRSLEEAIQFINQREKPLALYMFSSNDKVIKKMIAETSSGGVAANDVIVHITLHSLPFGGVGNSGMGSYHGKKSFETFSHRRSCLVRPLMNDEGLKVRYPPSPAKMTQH
The assay is described as follows: ALDH3A1 biochemical assay (benzaldehyde/NADP+, diaphorase-resazurin readout, 1,536-well). As to conditions: for CC-v2: curve class. For orientation: Alamar Blue is a resazurin reagent that responds to reducing activity.

As to `O=C(NCc1cccc(F)c1)c1csc(N2CCN(c3ccc(Cl)cc3)CC2)n1` [Compound 1], the half-maximal activity concentration (AC50) (commonly the midpoint of the concentration-response curve, whichever way the signal moves) was found to be 0.71 µM. For the setting “Table S2, in-house analogs”, this compound displayed an Efficacy of -61.67 and a CC-v2 of -1.2.
For `COc1cccc(N2CCN(c3nc(C(=O)NCc4cccc(C)c4)cs3)CC2)c1` [Compound 2], in that order: 2.51 µM, -72.54 and -1.2.
In turn, `COc1cccc(N2CCN(c3nc(C(=O)NCc4ccco4)cs3)CC2)c1` [Compound 3] gave an AC50 of 12.6 µM. For the setting “Table S2, in-house analogs”, the Efficacy is reported as -54.71 and the CC-v2 is recorded as -2.2.
With `CC(=O)Nc1ccc(CN2CC(Oc3ccc4c(c3)OCO4)C2)cc1` [NCGC00373680-01], the concentration at half-maximal activity (AC50) turned out to be 7.94 µM. Under “Table S1, primary screen”, the Efficacy is listed as -29.03 and the CC-v2 is given as -1.4.
For the compound `COc1ccc(CN2C[C@@H](F)[C@@H](OCc3nc4cnccc4[nH]3)C2)cc1` [NCGC00391075-01], half-maximal activity (AC50) was put at 15.8 µM. Further, under “Table S2, in-house analogs”, the Efficacy is listed as -69.78 and the CC-v2 was -2.4.
The like results for `COC(=O)c1ccc2nc(CO[C@H]3CN(Cc4ccc5ccccc5n4)C[C@H]3F)[nH]c2c1` [NCGC00391159-01] were, in that order, 0.79 µM, -109.85 and -1.1.
The like results for `COc1ccc(-n2nc(C)c([C@@H]3C=C[C@@H](NCc4ccccc4)C3)c2C)cc1` [NCGC00391544-01] were, in that order, 25.1 µM, -31.39 and -2.4.
For `COc1ccc(-n2nc(C)c([C@@H]3C=C[C@@H](NCc4cccc(Cl)c4)C3)c2C)cc1` [NCGC00391691-01], half-maximal activity (AC50) was put at 22.4 µM. Where the note is “Table S2, in-house analogs”, this compound had an Efficacy of -46.23 and a CC-v2 of -2.2.
Regarding `COC(=O)c1ccc2nc(CO[C@H]3CN(C(=O)C4CCOCC4)C[C@H]3F)[nH]c2c1` [NCGC00392526-01], the concentration at half-maximal activity (AC50) is 28.2 µM. Further, where the note is “Table S2, in-house analogs”, the Efficacy is reported as -67.89 and the CC-v2 is listed as -3.
Take `Cc1nn(-c2ccc(C(F)(F)F)cc2)c(C)c1[C@@H]1C=C[C@@H](NCc2ccc(N(C)C)cc2)C1` [NCGC00392637-01]: the AC50 worked out at 12.6 µM. Besides, under “Table S2, in-house analogs”, the Efficacy is -37.26 and the CC-v2 is -2.2.
`COC(=O)c1ccc2nc(CO[C@H]3CN(C(C)=O)C[C@H]3F)[nH]c2c1` [NCGC00392964-01] returned a concentration at half-maximal activity (AC50) of 0.32 µM. Under “Table S2, in-house analogs”, this compound gave an Efficacy of -32.94 and a CC-v2 of -1.2.
As to `COC(=O)c1ccc2nc(CO[C@H]3CN(C4CCOCC4)C[C@H]3F)[nH]c2c1` [NCGC00392980-01], the AC50 was 0.18 µM. Under “Table S2, in-house analogs”, this compound yielded an Efficacy of -21.56 and a CC-v2 of -1.4.
For `COC(=O)c1ccc2nc(CO[C@H]3CN(Cc4ccc(C(F)(F)F)cc4)C[C@H]3F)[nH]c2c1` [NCGC00392986-01], half-maximal activity (AC50) was put at 28.2 µM. Under “Table S2, in-house analogs”, this compound came in with an Efficacy of -62.94 and a CC-v2 of -2.2.
In turn, `Cc1ccc2[nH]c(CO[C@H]3CN(Cc4ccc(F)c(F)c4)C[C@H]3F)nc2c1` [NCGC00392991-01] returned an AC50 of 4.47 µM. Where the note is “Table S2, in-house analogs”, this compound displayed an Efficacy of -26.14 and a CC-v2 of -2.4.
`Cc1ccc2[nH]c(CO[C@H]3CN(C4CCOCC4)C[C@H]3F)nc2c1` [NCGC00392993-01] yielded a half-maximal activity concentration (AC50) of 0.32 µM. In addition, under “Table S2, in-house analogs”, the Efficacy was -23.33 and the CC-v2 is listed as -1.4.
In the case of `Fc1ccc2[nH]c(CO[C@H]3CN(Cc4ccc5ccccc5n4)C[C@H]3F)nc2c1` [NCGC00393065-01], the AC50 stood at 0.45 µM. Under “Table S2, in-house analogs”, this compound showed an Efficacy of -92.90 and a CC-v2 of -1.1.
The like results for `COc1ccc(-n2nc(C)c([C@@H]3C=C[C@@H](NCc4ccc(N(C)C)cc4)C3)c2C)cc1` [NCGC00394616-01] were, in that order, 28.2 µM, -105.83 and -2.1.
For `Cc1cc(Cl)ccc1-n1nc(C)c([C@@H]2C=C[C@@H](NC(=O)c3ccc(N(C)C)cc3)C2)c1C` [NCGC00394621-01], the AC50 turned out to be 3.98 µM. Further, under “Table S2, in-house analogs”, the Efficacy is -97.74 and the CC-v2 is reported as -1.1.
Turning to `COCC(=O)Nc1ncncc1-c1noc([C@@H]2CCCN2Cc2cc(OC)c(OC)c(OC)c2)n1` [NCGC00394846-01], the AC50 worked out at 15.8 µM. For the same compound, where the note is “Table S1, primary screen”, the Efficacy was -70.18 and the CC-v2 is -2.2.
Regarding `Cc1ccc(-n2nc(C)c([C@@H]3C=C[C@@H](NCc4ccc(N(C)C)cc4)C3)c2C)cc1Cl` [NCGC00395823-01], the half-maximal activity concentration (AC50) is 14.1 µM. Besides, under “Table S2, in-house analogs”, the Efficacy is -101.87 and the CC-v2 is given as -2.1.
`C[S+](=O)([O-])c1ccc(CN2C[C@H](O)C[C@H]2c2nc(C3CC3)no2)cc1` [NCGC00396353-01]: the activity was half-maximal at 35.5 µM (AC50). Moreover, for the setting “Table S1, primary screen”, the Efficacy is -44.61 and the CC-v2 is listed as -2.2.
`Cc1nn(Cc2ccccc2)c(C)c1[C@@H]1C=C[C@@H](NC(=O)c2ccco2)C1` [NCGC00397524-03] registered a half-maximal activity concentration (AC50) of 3.16 µM. For the setting “Table S2, in-house analogs”, this compound returned an Efficacy of -51.19 and a CC-v2 of -1.2.
For the compound `NC(=O)[C@H](Cc1ccc(O)cc1)NC(=O)[C@@]1(O)C[C@@H](O)[C@H](O)[C@@H](NC(=O)c2ccc(F)c(Cl)c2)C1` [NCGC00398197-01], the concentration at half-maximal activity (AC50) is 35.5 µM. For the same compound, where the note is “Table S1, primary screen”, the Efficacy is listed as -17.95 and the CC-v2 was -2.4.
`COc1ccc(NC(=O)N[C@H]2C[C@@H](C(=O)N[C@@H](Cc3cccs3)C(N)=O)N(C(=O)CSC)C2)cc1` [NCGC00398253-01] gave an AC50 of 14.1 µM. Under “Table S1, primary screen”, this compound yielded an Efficacy of -63.09 and a CC-v2 of -2.2.
The like results for `COc1cccc(NC(=O)O[C@@H]2CO[C@H]3[C@@H]2OC[C@@H]3Nc2nccc(-c3ccccc3)n2)c1` [NCGC00398388-01] were, in that order, 28.2 µM, -30.64 and -2.4.
The compound `Cc1nn(CCC#N)c(C)c1[C@@H]1C=C[C@@H](NC(=O)Nc2ccc(Cl)cc2)C1` [NCGC00399959-01] yielded an AC50 of 28.2 µM. Where the note is “Table S2, in-house analogs”, this compound came in with an Efficacy of -62.15 and a CC-v2 of -2.2.
The like results for `COc1ccc(NC(=O)N[C@@H]2C=C[C@@H](c3c(C)nn(CCC#N)c3C)C2)cc1` [NCGC00399960-01] were, in that order, 14.1 µM, -93.02 and -1.1.
In turn, `CNCc1cn(C[C@H]2O[C@@H](CC(=O)NCc3ccc(F)cc3)[C@H](O)[C@@H]2O)nn1` [NCGC00400077-01] came in with an AC50 of 39.8 µM. For the setting “Table S1, primary screen”, this compound registered an Efficacy of -39.06 and a CC-v2 of -2.2.
As to `Cc1nn(Cc2ccccc2)c(C)c1[C@@H]1C=C[C@@H](NC(=O)Nc2ccccc2)C1` [NCGC00400191-01], the AC50 was found to be 22.4 µM. Also, under “Table S2, in-house analogs”, the Efficacy is -83.17 and the CC-v2 was -2.2.
For `Cc1nn(-c2ccc(C(C)C)cc2)c(C)c1[C@@H]1C=C[C@@H](NCc2ccc(F)cc2)C1` [NCGC00401594-01], half-maximal activity (AC50) was put at 12.6 µM. Under “Table S2, in-house analogs”, this compound showed an Efficacy of -91.30 and a CC-v2 of -2.2.
For `COc1ccc(CNc2cc3c(cn2)CN(Cc2ccccc2)CCN3)cc1OC` [NCGC00411020-01], the AC50 was 14.1 µM. Also, where the note is “Table S1, primary screen”, the Efficacy is reported as -49.01 and the CC-v2 was -2.2.
In the case of `CNC(=O)c1cccc(-c2cnc3[nH]cc(CC(=O)N(C)c4ccccc4)c3c2)c1` [NCGC00412252-01], the AC50 was found to be 0.25 µM. Moreover, for the setting “Table S2, in-house analogs”, the Efficacy was -26.81 and the CC-v2 is reported as -1.4.
On to `CNC(=O)c1cccc(-c2cnc3[nH]cc(CC(=O)NCC(C)C)c3c2)c1` [NCGC00412294-01], for which the AC50 was 12.6 µM. Under “Table S2, in-house analogs”, this compound returned an Efficacy of -83.58 and a CC-v2 of -1.1.
As for `CNC(=O)c1cccc(-c2cnc3[nH]cc(CC(=O)Nc4ccccc4C)c3c2)c1` [NCGC00412345-01], the concentration at half-maximal activity (AC50) was 5.62 µM. For the same compound, for the setting “Table S2, in-house analogs”, the Efficacy was -73.33 and the CC-v2 was -2.4.
Compound `CNC(=O)c1cccc(-c2cnc(Nc3cncnc3)c3c2CCO3)c1` [NCGC00412778-01] showed an AC50 of 44.7 µM. Where the note is “Table S1, primary screen”, this compound gave an Efficacy of -38.45 and a CC-v2 of -2.2.
For `CC1(COCC2CC2)COc2ccc(C(=O)Nc3cccc([S+](C)(=O)[O-])c3)cc2N1` (stereo not drawn) [NCGC00416184-01], in that order: 35.5 µM, -42.40 and -2.4.
In turn, `COc1cccc(-c2cc(C(=O)NCc3cnn(C)c3)c3c(c2)N(C)CCO3)c1OC` [NCGC00417015-01] had a concentration at half-maximal activity (AC50) of 17.8 µM. Where the note is “Table S2, in-house analogs”, this compound returned an Efficacy of -40.16 and a CC-v2 of -2.2.
In turn, `CN1CCOc2c(C(=O)NCCC(N)=O)cc(-c3ccc(O)c(F)c3)cc21` [NCGC00417031-01] showed an AC50 of 14.1 µM. Besides, where the note is “Table S2, in-house analogs”, the Efficacy is on record as -80.78 and the CC-v2 is recorded as -2.2.
In turn, `COc1cc(F)ccc1-c1cc(C(=O)NCCC(N)=O)c2c(c1)N(C)CCO2` [NCGC00417040-01] came in with an AC50 of 20 µM. Moreover, under “Table S2, in-house analogs”, the Efficacy is -27.04 and the CC-v2 is -2.4.
The like results for `CN1CCOc2c(C(=O)NCCC(N)=O)cc(-c3ccc(CO)cc3)cc21` [NCGC00417044-01] were, in that order, 17.8 µM, -40.76 and -2.2.
